Data: ChEMBL document CHEMBL1137013, “Discovery of (2R)-2-(3-{3-[(4-Methoxyphenyl)carbonyl]-2-methyl-6-(trifluoromethoxy)-1H-indol-1-yl}phenoxy)butanoic acid (MK-0533): a novel selective peroxisome proliferator-activated receptor gamma modulator for the treatment of type 2 diabetes mellitus with a reduced potential to increase plasma …” (J Med Chem, 2009)
pEC50, pIC50: −log10 of the molar value. Active and inactive are the calls of the source. The rule behind the calls is not given here.

Experiments:
Liver microsomes = test: Protein binding in human liver microsomes assessed per mg of protein; assay type: ADME, Microsome
Liver = test: Protein binding in rat liver assessed per mg of protein; assay type: ADME, tissue-based
[1] = target: T1, Peroxisome proliferator-activated receptor alpha (Mus musculus) (UniProt P23204); test: Agonist activity at mouse PPARalpha at 3000 nM; assay type: functional
T1 sequence (whole entry): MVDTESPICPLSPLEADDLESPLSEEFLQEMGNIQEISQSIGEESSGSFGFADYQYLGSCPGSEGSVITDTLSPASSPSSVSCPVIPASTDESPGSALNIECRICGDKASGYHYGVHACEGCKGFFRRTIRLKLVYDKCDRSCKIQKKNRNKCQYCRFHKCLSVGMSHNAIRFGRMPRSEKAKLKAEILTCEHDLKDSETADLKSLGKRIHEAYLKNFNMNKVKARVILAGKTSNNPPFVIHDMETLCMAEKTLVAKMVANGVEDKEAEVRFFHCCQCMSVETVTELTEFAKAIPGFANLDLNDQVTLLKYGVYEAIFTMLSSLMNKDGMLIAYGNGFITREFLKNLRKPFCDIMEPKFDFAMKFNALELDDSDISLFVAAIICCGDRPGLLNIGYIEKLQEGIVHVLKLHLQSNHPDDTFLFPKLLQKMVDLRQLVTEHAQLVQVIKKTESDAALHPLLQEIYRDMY

Cricetinae = test: Agonist activity at hamster PPARalpha at 3000 nM; assay type: functional
[2] = target: T2, Peroxisome proliferator-activated receptor alpha (Mus musculus, UniProt P23204); test: Agonist activity at mouse PPARalpha; assay type: functional; details: read-out: EC50
T2 sequence (P23204 whole entry): T1 sequence (whole entry)

[3] = target: T3, Peroxisome proliferator-activated receptor alpha (Canis lupus familiaris, UniProt Q95N78); test: Agonist activity at dog PPARalpha; assay type: functional; details: read-out: EC50
T3 sequence (Q95N78 whole entry): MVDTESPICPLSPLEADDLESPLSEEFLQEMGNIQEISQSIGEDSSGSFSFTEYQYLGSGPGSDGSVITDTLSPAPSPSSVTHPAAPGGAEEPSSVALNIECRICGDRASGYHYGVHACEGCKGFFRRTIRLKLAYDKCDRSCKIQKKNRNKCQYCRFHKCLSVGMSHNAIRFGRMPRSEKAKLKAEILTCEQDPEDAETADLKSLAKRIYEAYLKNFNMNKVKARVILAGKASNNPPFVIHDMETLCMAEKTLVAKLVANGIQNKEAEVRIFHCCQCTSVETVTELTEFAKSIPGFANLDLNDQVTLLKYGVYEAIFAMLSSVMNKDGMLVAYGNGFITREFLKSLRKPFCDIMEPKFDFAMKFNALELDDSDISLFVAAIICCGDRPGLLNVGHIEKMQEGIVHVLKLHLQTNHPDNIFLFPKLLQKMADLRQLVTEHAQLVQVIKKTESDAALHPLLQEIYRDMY

[4] = Cmax in rat; assay type: ADME, organism-based; details: in vivo
[5] = Volume of distribution at steady state in rat; assay type: ADME, organism-based; details: in vivo, read-out: Vdss
[6] = Plasma clearance in dog; assay type: ADME, organism-based, Canis lupus familiaris
[7] = Terminal half life in dog; assay type: ADME, organism-based, Canis lupus familiaris; details: in vivo, read-out: beta t1/2 (converted)
[8] = Oral bioavailability in monkey; assay type: ADME, organism-based, Macaca mulatta; details: rhesus monkey, in vivo
[9] = Plasma clearance in monkey; assay type: ADME, organism-based, Macaca mulatta; details: rhesus monkey
[10] = Cmax in monkey; assay type: ADME, organism-based, Macaca mulatta; details: rhesus monkey, in vivo
Mus musculus [11] = test: Antihyperglycemic activity in db/db mouse assessed as reduction in blood glucose level at 30 mg/kg, po administered once daily for 11 days; assay type: functional; design: scale not given: the % may be the effect or the level left
Rattus norvegicus [12] = test: Toxicity in Sprague-Dawley rat assessed as liver weight at 300 mg/kg dosed daily for 2 weeks; assay type: organism-based; design: dose 300 mg/kg; details: in vivo, 336 h
Rattus norvegicus [13] = test: Antidiabetic activity in obese insulin-resistant Zucker fa/fa rat assessed as decrease in plasma triglyceride level at 3 to 150 mg/kg, po once daily for 7 days; assay type: functional, organism-based
Rattus norvegicus [14] = test: Antidiabetic activity in obese insulin-resistant Zucker fa/fa rat assessed as decrease in plasma insulin level at 3 to 150 mg/kg, po once daily for 7 days; assay type: functional, organism-based
Rattus norvegicus [15] = test: Antidiabetic activity in obese insulin-resistant Zucker fa/fa rat assessed as decrease in plasma free fatty acid level at 3 to 150 mg/kg, po once daily for 7 days; assay type: functional, organism-based
[16] = AUC in obese insulin-resistant Zucker fa/fa rat at 3 mg/kg, po once daily for 7 days; assay type: ADME, organism-based; design: dose 3 mg/kg, route oral; details: plasma
[17] = AUC in obese insulin-resistant Zucker fa/fa rat at 150 mg/kg, po once daily for 7 days; assay type: ADME, organism-based; design: dose 150 mg/kg, route oral; details: plasma
Rattus norvegicus [18] = test: Toxicity in obese insulin-resistant Zucker fa/fa rat assessed as increase in plasma volume at 100 mg/kg, po once daily for 7 days by Evans blue dye dilution technique; details: in vivo, 168 h
Rattus norvegicus [19] = test: Toxicity in obese insulin-resistant Zucker fa/fa rat assessed as increase in extracellular fluid volume at 3 to 150 mg/kg, po once daily for 7 days measured after 24 hrs by bioelectrical impedance analysis; assay type: organism-based; design: dose 3-150 mg/kg, route oral; details: in vivo
Rattus norvegicus [20] = test: Toxicity in obese insulin-resistant Zucker fa/fa rat assessed as increase in heart weight volume at 3 to 150 mg/kg, po once daily for 7 days; assay type: organism-based; design: dose 3-150 mg/kg, route oral; details: in vivo, 168 h
[21] = Inhibition of CYP450; assay type: ADME
Mus musculus [22] = test: Antihyperglycemic activity in db/db mouse assessed as plasma adiponectin level at 30 mg/kg, po administered once daily for 11 days by RIA; assay type: functional
[23] = target: T4, Peroxisome proliferator-activated receptor gamma (Homo sapiens, UniProt P37231)
T4 sequence (P37231 whole entry): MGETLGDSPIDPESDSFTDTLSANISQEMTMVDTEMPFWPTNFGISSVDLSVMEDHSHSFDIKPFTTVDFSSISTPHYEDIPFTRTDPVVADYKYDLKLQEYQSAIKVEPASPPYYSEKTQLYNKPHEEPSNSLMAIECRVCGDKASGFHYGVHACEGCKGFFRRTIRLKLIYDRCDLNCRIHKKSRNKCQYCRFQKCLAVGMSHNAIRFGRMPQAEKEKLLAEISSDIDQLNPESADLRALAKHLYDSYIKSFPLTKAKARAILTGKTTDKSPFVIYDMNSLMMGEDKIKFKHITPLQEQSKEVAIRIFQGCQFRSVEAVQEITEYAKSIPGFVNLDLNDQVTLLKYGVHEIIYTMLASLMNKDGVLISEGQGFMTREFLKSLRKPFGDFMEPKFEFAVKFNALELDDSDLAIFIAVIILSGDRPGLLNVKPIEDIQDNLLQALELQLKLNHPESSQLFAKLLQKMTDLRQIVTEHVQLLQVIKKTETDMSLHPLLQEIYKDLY
Description: Displacement of [3H2]nTZD3 from human recombinant GST-fused PPARgamma expressed in Escherichia coli by scintillation proximity assay

Structure (SMILES): CC[C@@H](Oc1cccc(-n2c(C)c(C(=O)c3ccc(OC)cc3)c3ccc(OC(F)(F)F)cc32)c1)C(=O)O [MK-0533]
- PB (Liver microsomes): < 10 pmol
- PB (Liver): < 10 pmol
- Activity [1]: 53%
- Activity (Cricetinae): 52%
- pEC50 [2]: 6.62
- pEC50 [3]: 6.43
- Cmax [4]: 1000 nM
- Vd [5]: 1.4 L/kg
- clearance [6]: 7.5 mL/min/kg
- half-life [7]: 3.6 h
- bioavailability [8]: 25%
- clearance [9]: 10.1 mL/min/kg
- Cmax [10]: 500 nM
- Activity (Mus musculus [11]): 83%
- Activity (Rattus norvegicus [12]): 19.7 g
- Activity (Rattus norvegicus [13]): Active
- Activity (Rattus norvegicus [14]): Active
- Activity (Rattus norvegicus [15]): Active
- AUC at 168 h [16]: 6 µM·h
- AUC at 168 h [17]: 4520 µM·h
- Activity (Rattus norvegicus [18]): Toxic
- Activity (Rattus norvegicus [19]): Non-toxic
- Activity (Rattus norvegicus [20]): Non-toxic
- INH [21]: > 10 µM
- Activity (Mus musculus [22]): 48.1 µg/mL
- pIC50 [23]: 8.05
